Data from ChEMBL document CHEMBL3217565, “Conformational effects on potency of thioimidazoles and dihydrothiazolines” (Medchemcomm, 2011).

How the values were obtained:
[1] = target: T1, Mitogen-activated protein kinase 14 (Homo sapiens, UniProt Q16539); assay: Inhibition of p38-alpha MAPK (unknown origin) after 3 hrs
[2] = target: T1, Mitogen-activated protein kinase 14; assay: Ratio of SB203580 IC50 to compound IC50 for p38-alpha MAPK (unknown origin)

T1 sequence (Q16539 whole entry): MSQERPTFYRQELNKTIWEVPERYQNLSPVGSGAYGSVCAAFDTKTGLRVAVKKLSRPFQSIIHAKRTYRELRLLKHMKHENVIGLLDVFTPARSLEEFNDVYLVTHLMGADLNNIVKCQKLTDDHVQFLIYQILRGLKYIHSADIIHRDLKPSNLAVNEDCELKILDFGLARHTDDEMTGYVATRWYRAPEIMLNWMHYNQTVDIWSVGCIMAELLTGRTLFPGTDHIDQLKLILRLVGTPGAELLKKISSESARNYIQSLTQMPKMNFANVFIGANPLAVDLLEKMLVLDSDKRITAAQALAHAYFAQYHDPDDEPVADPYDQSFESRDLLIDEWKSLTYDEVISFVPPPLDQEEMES

SMILES	IC50 [1] [nM]	Ratio IC50 [2]
O=C(Nc1cc(-c2c(-c3ccc(F)cc3)nc3n2CCS3)ccn1)C1CC1c1ccccc1 (stereo not drawn)	20	1.4
CSc1nc(-c2ccc(F)cc2)c(-c2ccnc(NC(=O)C3CC3c3ccccc3)c2)[nH]1 (stereo not drawn)	20	1.85
O=C(Nc1cc(-c2c(-c3ccc(F)cc3)nc3n2CCS3)ccn1)c1cc2ccccc2o1	115	0.77
CSc1nc(-c2ccc(F)cc2)c(-c2ccnc(NC(=O)c3ccc(C)c(F)c3)c2)n1C	411	0.1
CSc1nc(-c2ccc(F)cc2)c(-c2ccnc(NC(=O)Cc3ccc(F)cc3)c2)[nH]1		3.55
O=C(Nc1cc(-c2c(-c3ccc(F)cc3)nc3n2CCS3)ccn1)c1ccco1	140	0.63
CSc1nc(-c2ccc(F)cc2)c(-c2ccnc(NC(=O)Cc3ccc(F)cc3)c2)n1C		0.24
O=C(Nc1cc(-c2c(-c3ccc(F)cc3)nc3n2CCS3)ccn1)c1ccccc1	83	0.89
CSc1nc(-c2ccc(F)cc2)c(-c2ccnc(NC(=O)c3cc4ccccc4o3)c2)[nH]1		0.7
CSc1nc(-c2ccc(F)cc2)c(-c2ccnc(NC(=O)Cc3ccccc3)c2)[nH]1	22	1.23
CSc1nc(-c2ccc(F)cc2)c(-c2ccnc(NC(=O)Cc3ccccc3)c2)n1C	498	0.05
O=C(Cc1ccccc1)Nc1cc(-c2c(-c3ccc(F)cc3)nc3n2CCS3)ccn1	46	0.97
CSc1nc(-c2ccc(F)cc2)c(-c2ccnc(NC(=O)c3ccccc3)c2)[nH]1	19	1.36
Cc1ccc(C(=O)Nc2cc(-c3c(-c4ccc(F)cc4)nc4n3CCS4)ccn2)cc1F	29	0.96
CSc1nc(-c2ccc(F)cc2)c(-c2ccnc(NC(=O)c3ccccc3)c2)n1C	337	0.18
CSc1nc(-c2ccc(F)cc2)c(-c2ccnc(NC(=O)C3CC3c3ccccc3)c2)n1C (stereo not drawn)	186	0.22
O=C(Nc1cc(-c2c(-c3ccc(F)cc3)nc3n2CCS3)ccn1)c1ccc(F)cc1	36	1.44
CSc1nc(-c2ccc(F)cc2)c(-c2ccnc(NC(=O)c3cc4ccccc4o3)c2)n1C	430	0.1
O=C(Cc1ccc(F)cc1)Nc1cc(-c2c(-c3ccc(F)cc3)nc3n2CCS3)ccn1	46	1.93
CSc1nc(-c2ccc(F)cc2)c(-c2ccnc(NC(=O)c3ccc(F)cc3)c2)n1C	396	0.16
CSc1nc(-c2ccc(F)cc2)c(-c2ccnc(NC(=O)c3ccc(F)cc3)c2)[nH]1	44	0.61
CSc1nc(-c2ccc(F)cc2)c(-c2ccnc(NC(=O)c3ccco3)c2)n1C	173	0.35
CSc1nc(-c2ccc(F)cc2)c(-c2ccnc(NC(=O)c3ccc(C)c(F)c3)c2)[nH]1		1.93
CSc1nc(-c2ccc(F)cc2)c(-c2ccnc(NC(=O)c3ccco3)c2)[nH]1		1.46
